# Reference: patent US9580437B2, “Triazolopyrimidine compounds and uses thereof” (Novartis AG, priority 2014, dated 2017)
# pIC50: −log10 of the molar value.
# What was measured:
# [1] = target: wild type PRC2 (wtPRC2) complex (Homo sapiens (Human), UniProt O75530); test: EED LC-MS assay; assay type: biochemical; conditions: read-out: (b) IC50 EED LC-MS Qualified
# Protocol: A 6 μL solution of 3 μM of the peptide substrate H3K27Me0 (histone H3[21-44]-biotin) in reaction buffer was added to initiate each reaction. […] ELISA (H3K27 Methylation) Assay
# EED (1-441)-His protein = EED (1-441)-His protein (Homo sapiens (Human), UniProt O75530); test: EED-H3K27Me3 peptide competition binding assay by AlphaScreen; conditions: read-out: (a) IC50 EED Alphascreen binding Qualified
# Source text: EED-H3K27Me3 peptide competition binding assay by AlphaScreen (α-screen)
# wild type PRC2 (wtPRC2) complex, sequence (O75530 whole entry): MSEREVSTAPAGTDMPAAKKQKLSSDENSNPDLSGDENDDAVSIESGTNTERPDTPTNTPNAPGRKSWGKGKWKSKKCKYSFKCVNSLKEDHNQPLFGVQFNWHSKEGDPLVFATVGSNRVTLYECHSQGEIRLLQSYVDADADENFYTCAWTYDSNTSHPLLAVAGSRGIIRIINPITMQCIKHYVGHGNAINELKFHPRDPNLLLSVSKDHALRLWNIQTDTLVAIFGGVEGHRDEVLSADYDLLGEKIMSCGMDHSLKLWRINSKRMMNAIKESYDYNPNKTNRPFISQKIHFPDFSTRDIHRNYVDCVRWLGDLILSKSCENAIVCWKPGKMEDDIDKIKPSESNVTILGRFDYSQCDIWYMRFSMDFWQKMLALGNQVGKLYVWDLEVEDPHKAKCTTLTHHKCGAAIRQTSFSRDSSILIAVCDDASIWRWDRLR
# wild type PRC2 (wtPRC2) complex, sequence (Q15910 whole entry partner): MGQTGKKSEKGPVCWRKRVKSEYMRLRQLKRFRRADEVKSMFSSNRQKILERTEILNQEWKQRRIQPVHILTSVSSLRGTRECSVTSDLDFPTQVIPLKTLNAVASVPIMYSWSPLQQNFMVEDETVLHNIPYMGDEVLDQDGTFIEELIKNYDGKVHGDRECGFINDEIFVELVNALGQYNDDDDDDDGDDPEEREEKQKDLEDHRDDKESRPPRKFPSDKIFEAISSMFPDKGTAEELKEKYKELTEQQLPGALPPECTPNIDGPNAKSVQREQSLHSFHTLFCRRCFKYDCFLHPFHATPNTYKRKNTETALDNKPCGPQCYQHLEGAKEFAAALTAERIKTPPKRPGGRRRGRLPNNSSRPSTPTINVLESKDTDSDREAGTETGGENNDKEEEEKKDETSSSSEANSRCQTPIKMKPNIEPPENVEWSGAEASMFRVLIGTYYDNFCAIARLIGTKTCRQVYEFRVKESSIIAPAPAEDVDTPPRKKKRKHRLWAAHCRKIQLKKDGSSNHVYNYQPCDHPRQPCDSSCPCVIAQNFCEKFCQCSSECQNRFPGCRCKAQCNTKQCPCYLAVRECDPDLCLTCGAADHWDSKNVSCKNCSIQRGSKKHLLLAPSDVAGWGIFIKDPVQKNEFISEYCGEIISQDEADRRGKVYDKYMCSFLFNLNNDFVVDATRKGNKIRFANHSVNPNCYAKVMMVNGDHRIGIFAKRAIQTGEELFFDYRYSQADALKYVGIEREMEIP
# wild type PRC2 (wtPRC2) complex, sequence (Q15022 whole entry partner): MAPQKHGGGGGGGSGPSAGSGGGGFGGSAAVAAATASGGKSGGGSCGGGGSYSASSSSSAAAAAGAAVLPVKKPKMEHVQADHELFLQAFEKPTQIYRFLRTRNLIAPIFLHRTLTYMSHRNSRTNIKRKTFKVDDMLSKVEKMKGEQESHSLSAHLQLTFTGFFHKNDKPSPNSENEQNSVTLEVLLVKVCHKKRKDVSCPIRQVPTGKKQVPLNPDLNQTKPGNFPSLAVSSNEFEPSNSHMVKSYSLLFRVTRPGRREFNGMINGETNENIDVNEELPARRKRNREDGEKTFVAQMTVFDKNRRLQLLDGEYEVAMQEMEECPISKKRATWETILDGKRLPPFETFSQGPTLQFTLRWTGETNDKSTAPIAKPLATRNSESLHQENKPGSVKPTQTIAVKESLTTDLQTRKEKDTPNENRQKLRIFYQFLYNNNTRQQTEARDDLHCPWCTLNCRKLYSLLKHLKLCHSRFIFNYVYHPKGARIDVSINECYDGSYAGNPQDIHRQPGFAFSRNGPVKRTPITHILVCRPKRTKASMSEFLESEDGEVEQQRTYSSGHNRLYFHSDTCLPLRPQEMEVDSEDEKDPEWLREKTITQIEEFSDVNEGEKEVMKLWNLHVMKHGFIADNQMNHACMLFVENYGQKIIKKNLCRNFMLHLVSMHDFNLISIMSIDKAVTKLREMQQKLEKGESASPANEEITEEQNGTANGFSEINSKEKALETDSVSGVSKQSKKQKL
# EED (1-441)-His protein, sequence (O75530 whole entry): as the sequence (O75530 whole entry) above
Structure (SMILES),pIC50 [1],pIC50 (EED (1-441)-His protein)
"Fc1ccccc1-c1cnc(NCc2c(F)ccc3c2CCO3)n2cnnc12 [Example 94, N-((5-fluoro-2,3-dihydrobenzofuran-4-yl)methyl)-8-(2-fluorophenyl)-[1,2,4]triazolo[4,3-c]pyrimidin-5-amine]",7.73,7.95
"CN(C)C(=O)c1ccc(-c2cnc(NCc3cccc4c3CCO4)n3cnnc23)cn1 [Example 95, 5-(5-(((2,3-dihydrobenzofuran-4-yl)methyl)amino)-[1,2,4]triazolo[4,3-c]pyrimidin-8-yl)-N,N-dimethylpicolinamide]",7.89,8.28
"CC1CCCN1c1ccc(-c2cnc(NCc3cccc4c3CCO4)n3cnnc23)cn1 (centres unmarked) [Example 96, N-((2,3-dihydrobenzofuran-4-yl)methyl)-8-(6-(2-methylpyrrolidin-1-yl)pyridin-3-yl)-[1,2,4]triazolo[4,3-c]pyrimidin-5-amine]",7.88,7.59
"COC(=O)N1CCN(c2ccc(-c3cnc(NCc4cccc5c4CCO5)n4cnnc34)cn2)CC1 [Example 97, methyl 4-(5-(5-(((2,3-dihydrobenzofuran-4-yl)methyl)amino)-[1,2,4]triazolo[4,3-c]pyrimidin-8-yl)pyridin-2-yl)piperazine-1-carboxylate]",8.07,8.21
"CS(=O)(=O)CCCOc1cncc(-c2cnc(NCc3cccc4c3CCO4)n3cnnc23)c1 [Example 98, N-((2,3-dihydrobenzofuran-4-yl)methyl)-8-(5-(3-(methylsulfonyl)propoxy)pyridin-3-yl)-[1,2,4]triazolo[4,3-c]pyrimidin-5-amine]",7.45,7.66
"CC(C)(O)c1ccc(-c2cnc(NCc3cccc4c3CCO4)n3cnnc23)cn1 [Example 99, 2-(5-(5-(((2,3-dihydrobenzofuran-4-yl)methyl)amino)-[1,2,4]triazolo[4,3-c]pyrimidin-8-yl)pyridin-2-yl)propan-2-ol]",8.17,8.38
"FC1(F)CCN(CCc2ccc(-c3cnc(NCc4cccc5c4CCO5)n4cnnc34)cn2)C1 [Example 100, 8-(6-(2-(3,3-difluoropyrrolidin-1-yl)ethyl)pyridin-3-yl)-N-((2,3-dihydrobenzofuran-4-yl)methyl)-[1,2,4]triazolo[4,3-c]pyrimidin-5-amine]",7.50,7.85
"CC1(C)COC(c2ccc(-c3cnc(NCc4cccc5c4CCO5)n4cnnc34)cn2)=N1 [Example 101, N-((2,3-dihydrobenzofuran-4-yl)methyl)-8-(6-(4,4-dimethyl-4,5-dihydrooxazol-2-yl)pyridin-3-yl)-[1,2,4]triazolo[4,3-c]pyrimidin-5-amine]",7.87,7.93
CN(C)CCN(C)C(=O)c1ccc(-c2cnc(NCc3cccc4c3CCO4)n3cnnc23)cn1 [Example 102],7.16,7.47
"Cc1cc(-c2cnc(NCc3cccc4c3CCO4)n3cnnc23)cnc1N1CCCC1 [Example 103, N-((2,3-dihydrobenzofuran-4-yl)methyl)-8-(5-methyl-6-(pyrrolidin-1-yl)pyridin-3-yl)-[1,2,4]triazolo[4,3-c]pyrimidin-5-amine]",6.37,6.14
"O=C1CN(c2ccc(-c3cnc(NCc4cccc5c4CCO5)n4cnnc34)cn2)CCN1 [Example 104, 4-(5-(5-(((2,3-dihydrobenzofuran-4-yl)methyl)amino)-[1,2,4]triazolo[4,3-c]pyrimidin-8-yl)pyridin-2-yl)piperazin-2-one]",7.92,8.02
"Cc1cc(-c2cnc(NCc3cccc4c3CCO4)n3cnnc23)cnc1N1CCNC(=O)C1 [Example 105, 4-(5-(5-(((2,3-dihydrobenzofuran-4-yl)methyl)amino)-[1,2,4]triazolo[4,3-c]pyrimidin-8-yl)-3-methylpyridin-2-yl)piperazin-2-one]",7.49,7.57
"CS(=O)(=O)CCOc1cncc(-c2cnc(NCc3cccc4c3CCO4)n3cnnc23)c1 [Example 106, N-((2,3-dihydrobenzofuran-4-yl)methyl)-8-(5-(2-(methylsulfonyl)ethoxy)pyridin-3-yl)-[1,2,4]triazolo[4,3-c]pyrimidin-5-amine]",7.47,7.60
"O=CN1CCN(CCc2ccc(-c3cnc(NCc4cccc5c4CCO5)n4cnnc34)cn2)CC1 [Example 107, 4-(2-(5-(5-(((2,3-dihydrobenzofuran-4-yl)methyl)amino)-[1,2,4]triazolo[4,3-c]pyrimidin-8-yl)pyridin-2-yl)ethyl)piperazine-1-carbaldehyde]",7.60,7.91
"CC(=O)N1CCN(CCc2ccc(-c3cnc(NCc4cccc5c4CCO5)n4cnnc34)cn2)CC1 [Example 108, 1-(4-(2-(5-(5-(((2,3-dihydrobenzofuran-4-yl)methyl)amino)-[1,2,4]triazolo[4,3-c]pyrimidin-8-yl)pyridin-2-yl)ethyl)piperazin-1-yl)ethanone]",7.96,8.17
"O=C1CN(CCc2ccc(-c3cnc(NCc4cccc5c4CCO5)n4cnnc34)cn2)CCN1 [Example 109, 4-(2-(5-(5-(((2,3-dihydrobenzofuran-4-yl)methyl)amino)-[1,2,4]triazolo[4,3-c]pyrimidin-8-yl)pyridin-2-yl)ethyl)piperazin-2-one]",7.86,8.06
"OCCN1CCN(c2ccc(-c3cnc(NCc4cccc5c4CCO5)n4cnnc34)cn2)CC1 [Example 110, 2-(4-(5-(5-(((2,3-dihydrobenzofuran-4-yl)methyl)amino)-[1,2,4]triazolo[4,3-c]pyrimidin-8-yl)pyridin-2-yl)piperazin-1-yl)ethanol]",7.82,8.03
"CNc1cc(F)c(-c2cnc(NCc3cccc4c3CCO4)n3cnnc23)cn1 [Example 111, N-((2,3-dihydrobenzofuran-4-yl)methyl)-8-(4-fluoro-6-(methylamino)pyridin-3-yl)-[1,2,4]triazolo[4,3-c]pyrimidin-5-amine]",7.76,7.72
"CN(C)c1cc(F)c(-c2cnc(NCc3cccc4c3CCO4)n3cnnc23)cn1 [Example 112, N-((2,3-dihydrobenzofuran-4-yl)methyl)-8-(6-(dimethylamino)-4-fluoropyridin-3-yl)-[1,2,4]triazolo[4,3-c]pyrimidin-5-amine]",7.75,7.75
"O=CN1CCCN(c2ccc(-c3cnc(NCc4cccc5c4CCO5)n4cnnc34)cn2)CC1 [Example 113, 4-(5-(5-(((2,3-dihydrobenzofuran-4-yl)methyl)amino)-[1,2,4]triazolo[4,3-c]pyrimidin-8-yl)pyridin-2-yl)-1,4-diazepane-1-carbaldehyde]",7.80,7.90
"CCNC(=O)c1ccc(-c2cnc(NCc3cccc4c3CCO4)n3cnnc23)cn1 [Example 114, 5-(5-(((2,3-dihydrobenzofuran-4-yl)methyl)amino)-[1,2,4]triazolo[4,3-c]pyrimidin-8-yl)-N-ethylpicolinamide]",7.73,7.81
"Fc1ccc2c(c1CNc1ncc(-c3cccnc3F)c3nncn13)CCO2 [Example 115, N-((5-fluoro-2,3-dihydrobenzofuran-4-yl)methyl)-8-(2-fluoropyridin-3-yl)-[1,2,4]triazolo[4,3-c]pyrimidin-5-amine]",8.16,8.33
